“And” between values parts separate entries of the source, which are not always exact repeats. Equal entries are not always repeated.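 Briefly, cells in 96-well plates were exposed to five compound concentrations for 48 h, and endpoints were estimated by linear interpolation. Abbreviation: GI50, concentration required for 50% inhibition of growth. TGI marks complete inhibition of growth.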
Assays:
Assay in all cases: DTP human tumour cell line panel, 48 h
SNB-78 CNS = test system: SNB-78 CNS
SK-MEL-2 melanoma = test system: SK-MEL-2 melanoma
RXF-631 renal = test system: RXF-631 renal
HOP-18 NSCLC = test system: HOP-18 NSCLC
LXFL 529 NSCLC = test system: LXFL 529 NSCLC
DMS 114 small cell lung = test system: DMS 114 small cell lung
DLD-1 colon = test system: DLD-1 colon
M19-MEL melanoma = test system: M19-MEL melanoma
KM20L2 colon = test system: KM20L2 colon
DMS 273 small cell lung = test system: DMS 273 small cell lung
XF 498 CNS = test system: XF 498 CNS

Compound `COC[n+]1cc2cc(OC)c(OC)cc2c2ccc3cc(OC)c(OC)cc3c21` has a TGI (SNB-78 CNS) greater than 100 µM, a TGI (SK-MEL-2 melanoma) greater than 100 µM and a TGI (RXF-631 renal) greater than 100 µM. For the same compound, the TGI (HOP-18 NSCLC) was greater than 100 µM, the TGI (LXFL 529 NSCLC) was greater than 100 µM and the TGI (DMS 114 small cell lung) was greater than 100 µM. The TGI (DLD-1 colon) was greater than 100 µM, the TGI (M19-MEL melanoma) was greater than 100 µM and the TGI (KM20L2 colon) was greater than 100 µM.
Work on `NC1=NC(OCC2(CO)CCC2)C=C(NCC2(CO)CCC2)N1` (configuration not stated) yielded a TGI (SK-MEL-2 melanoma) greater than 100 µM.
`CC(=O)Nc1ccc2c(C)c3c4ccccc4n(C)c3nc2n1` gave a TGI (SK-MEL-2 melanoma) of 47.6 µM.
Compound `Cc1cc(Cl)ccc1N=NC(=O)NNc1ccc(Cl)cc1C` has a TGI (SK-MEL-2 melanoma) of 28 µM.
`O=C(CCCn1ccnc1[N+](=O)[O-])NCCn1ccnc1` gave a TGI (SK-MEL-2 melanoma) greater than 100 µM.
In the case of `O=S1(=O)CCN(Cc2ccccc2)/C1=N\S(=O)(=O)c1ccc(Cl)cc1`, the TGI (SK-MEL-2 melanoma) is reported as 53.3 µM.
`S=C(Nc1cccc(Cl)c1)Nc1ccccn1` was tested, and the TGI (SK-MEL-2 melanoma) was greater than 100 µM.
Work on `O=C1CC2(CCC(O)(c3ccc(Cl)cc3)C(C(=O)c3ccc(Cl)cc3)C2)C(=O)c2ccccc2N1` (configuration not stated) yielded a TGI (SK-MEL-2 melanoma) greater than 100 µM.
Compound `c1ccc(CCN(Cc2nc3ccccc3[nH]2)Cc2nc3ccccc3[nH]2)cc1` has a TGI (SK-MEL-2 melanoma) of 36.6 µM.
For `CC1NC(/C(=C/c2ccccc2O)NC(=O)c2ccccc2)OC1=O` (configuration not stated), the TGI (SK-MEL-2 melanoma) was greater than 50 µM.
`Cc1ccc(S(=O)(=O)NNC(=S)Nc2cccc3ccccc23)cc1` showed a TGI (SK-MEL-2 melanoma) greater than 100 µM.
With `CC1[C@@H](OCc2ccccc2)COC(=O)N1Cc1ccccc1` (some centres not stated) the TGI (SK-MEL-2 melanoma) was greater than 100 µM.
Work on `CN(C)CCNc1ccc2c(=O)n(CCN(C)C)c(=O)n3c4ccc(N)cc4c(=O)c1c23` yielded a TGI (SK-MEL-2 melanoma) of 0.496 µM.
`CC1C[C@]2(C)C(=S)Nc3ccccc3[C@@H]2Nc2ccccc21` (some centres not stated) was tested, and the TGI (SK-MEL-2 melanoma) was 32 µM.
Compound `O=c1cc(-c2cccc(OC(F)(F)F)c2)[nH]c2cc3c(cc12)OCO3` has a TGI (SK-MEL-2 melanoma) of 0.628 µM.
Work on `Cc1c2c(n(CCc3ccccc3)c1C)NN=C(C#N)S2(=O)=O` yielded a TGI (SK-MEL-2 melanoma) greater than 100 µM.
`O=C1N=C(c2ccccc2)O/C1=C\c1ccccc1` was tested, and the TGI (SK-MEL-2 melanoma) was greater than 100 µM.
In the case of `CC1(O)/C(=N/O)CC2CC1C2(C)C` (configuration not stated), the TGI (SK-MEL-2 melanoma) is reported as greater than 100 µM.
`CCN(CC)Cc1cc(Nc2c3ccccc3nc3c2[nH]c2ccccc23)ccc1O` showed a TGI (SNB-78 CNS) of 4.87 µM, a TGI (SK-MEL-2 melanoma) of 2.75 µM and a TGI (RXF-631 renal) of 4.37 µM. For the same compound, the TGI (HOP-18 NSCLC) was 5.39 µM, the TGI (LXFL 529 NSCLC) was 3.02 µM and the TGI (DMS 273 small cell lung) was 1.84 µM. The TGI (DMS 114 small cell lung) was 3.14 µM, the TGI (DLD-1 colon) was 5.7 µM and the TGI (M19-MEL melanoma) was 3.04 µM. It also gave a TGI (XF 498 CNS) of 3.18 µM and a TGI (KM20L2 colon) of 2.41 µM.
`CSc1cc(Cl)c(C)cc1S(=O)(=O)NC(=O)NNc1ccc(F)c(Cl)c1` gave a TGI (SK-MEL-2 melanoma) greater than 100 µM.
Compound `COC(=O)c1c(C(=O)OC)c2cc(C(=O)c3ccccc3)ccn2c1Cl` has a TGI (SNB-78 CNS) greater than 100 µM, a TGI (SK-MEL-2 melanoma) greater than 100 µM and a TGI (LXFL 529 NSCLC) greater than 100 µM. The TGI (DMS 273 small cell lung) was 90.4 µM, the TGI (DMS 114 small cell lung) was 89.1 µM and the TGI (M19-MEL melanoma) was greater than 100 µM. For the same compound, the TGI (XF 498 CNS) was 66.6 µM and the TGI (KM20L2 colon) was greater than 100 µM.
Compound `COc1ccc(C2C(Cl)C(=O)N2NC(=O)Cc2ccccc2)cc1` (configuration not stated) has a TGI (SNB-78 CNS) greater than 100 µM, a TGI (SK-MEL-2 melanoma) greater than 100 µM and a TGI (HOP-18 NSCLC) greater than 100 µM. For the same compound, the TGI (LXFL 529 NSCLC) was greater than 100 µM, the TGI (DMS 273 small cell lung) was greater than 100 µM and the TGI (DLD-1 colon) was greater than 100 µM. The TGI (M19-MEL melanoma) was greater than 100 µM, the TGI (XF 498 CNS) was greater than 100 µM and the TGI (KM20L2 colon) was greater than 100 µM.
With `CC(=O)Nc1ccc(C2[C@H]3C(=O)N(c4ccc(Cc5ccc(N6C(=O)[C@@H]7ON(c8ccccc8)C(c8ccc(NC(C)=O)cc8)[C@@H]7C6=O)cc5)cc4)C(=O)[C@H]3ON2c2ccccc2)cc1` (some centres not stated) the TGI (SNB-78 CNS) was greater than 100 µM, the TGI (SK-MEL-2 melanoma) was greater than 100 µM and the TGI (HOP-18 NSCLC) was greater than 100 µM. For the same compound, the TGI (LXFL 529 NSCLC) was greater than 100 µM, the TGI (DMS 273 small cell lung) was greater than 100 µM and the TGI (DMS 114 small cell lung) was greater than 100 µM. The TGI (DLD-1 colon) was greater than 100 µM, the TGI (M19-MEL melanoma) was greater than 100 µM and the TGI (KM20L2 colon) was greater than 100 µM.
Work on `O=[N+]([O-])c1cccc2nccc(NCC(O)CO)c12` (configuration not stated) yielded a TGI (SK-MEL-2 melanoma) of 26 µM.
Work on `C=C(C)[C@@H]1CC[C@]2(C(=O)O)CC[C@]3(C)[C@H](CC[C@@H]4[C@@]5(C)CC[C@H](C(=O)/C=C/c6ccc(O)cc6)C(C)(C)[C@@H]5CC[C@]43C)[C@@H]12` yielded a TGI (SK-MEL-2 melanoma) of 46.8 µM.
Compound `CC(C)(C)[C@H]1CO[C@]2(C)[C@@H]3C[C@@H]3C(=O)N12` has a TGI (SNB-78 CNS) greater than 100 µM, a TGI (SK-MEL-2 melanoma) greater than 100 µM and a TGI (RXF-631 renal) greater than 100 µM. For the same compound, the TGI (DMS 273 small cell lung) was greater than 100 µM, the TGI (DMS 114 small cell lung) was greater than 100 µM and the TGI (DLD-1 colon) was greater than 100 µM. The TGI (M19-MEL melanoma) was greater than 100 µM, the TGI (XF 498 CNS) was greater than 100 µM and the TGI (KM20L2 colon) was greater than 100 µM.
`CC1=NN(C(=O)Cc2ccccc2)C(=O)/C1=C\C=C\c1ccccc1` showed a TGI (SNB-78 CNS) greater than 100 µM, a TGI (SK-MEL-2 melanoma) greater than 100 µM and a TGI (HOP-18 NSCLC) greater than 100 µM. For the same compound, the TGI (DMS 273 small cell lung) was greater than 100 µM, the TGI (DLD-1 colon) was greater than 100 µM and the TGI (XF 498 CNS) was greater than 100 µM.
In the case of `CC(=O)CCC[C@@H](C)[C@@H]1O[C@H]([C@@]2(C)CCC(=O)O2)C[C@H]2C(CSc3ccccc3)C(=O)O[C@@H]12` (some centres not stated), the TGI (SK-MEL-2 melanoma) is reported as 40.6 µM.
Compound `CCOP(=O)(OCC)/C(C#N)=C/c1ccco1` has a TGI (SNB-78 CNS) greater than 100 µM, a TGI (SK-MEL-2 melanoma) greater than 100 µM and a TGI (RXF-631 renal) greater than 100 µM. It also gave a TGI (HOP-18 NSCLC) greater than 100 µM, a TGI (LXFL 529 NSCLC) greater than 100 µM and a TGI (DMS 114 small cell lung) greater than 100 µM. It also gave a TGI (DLD-1 colon) greater than 100 µM, a TGI (M19-MEL melanoma) greater than 100 µM and a TGI (XF 498 CNS) greater than 100 µM.
In the case of `CNC(=O)c1n[nH][nH]c1=O`, the TGI (SK-MEL-2 melanoma) is reported as greater than 100 µM.
`COC1OC(CO)C(O)C(OC(=O)c2cc(O)c(O)c(O)c2)C1OC(=O)c1cc(O)c(O)c(O)c1` (configuration not stated) showed a TGI (SK-MEL-2 melanoma) greater than 100 µM.
For `Cc1ccc(S(=O)(=O)N2CCCCN(S(=O)(=O)c3ccc(C)cc3)Cc3ccccc3OCCOCCOc3c4cccc3Cc3cccc5c3OCCOCCOc3ccccc3CN(S(=O)(=O)c3ccc(C)cc3)CCCN(S(=O)(=O)c3ccc(C)cc3)Cc3ccccc3OCCOCCOc3c(cccc3C4)Cc3cccc(c3OCCOCCOc3ccccc3C2)C5)cc1`, the TGI (SK-MEL-2 melanoma) was greater than 100 µM.
`CCCCCc1c2nc(c(CCCCC)c3ccc([nH]3)c(CCCCC)c3ccc([nH]3)c(CCCCC)c3nc1C=C3)C=C2` gave a TGI (SK-MEL-2 melanoma) greater than 100 µM.
`CC1(C)C(=O)N=C(N)N1C(=O)OCc1ccccc1` showed a TGI (SK-MEL-2 melanoma) greater than 100 µM.
`CC(=O)OC1COC(n2c(N)c(C#N)c(C)c(C#N)c2=S)C(OC(C)=O)C1OC(C)=O` (configuration not stated) was tested, and the GI50 (SK-MEL-2 melanoma) was > 100 µM and 26 µM and the TGI (SK-MEL-2 melanoma) was greater than 100 µM.
For `CC(C)/C=N\n1c(N)c(C#N)c(C#N)c1C(C)C`, the TGI (SK-MEL-2 melanoma) was 58 µM.
With `N=C1C(=N)c2ccccc2-c2ccccc21` the TGI (SK-MEL-2 melanoma) was 2.97 µM.
`Cc1cc(C)nc(Nc2nc3ccc([N+](=O)[O-])cc3[nH]2)n1` showed a TGI (SNB-78 CNS) greater than 100 µM, a TGI (SK-MEL-2 melanoma) greater than 100 µM and a TGI (LXFL 529 NSCLC) greater than 100 µM. For the same compound, the TGI (DMS 273 small cell lung) was greater than 100 µM, the TGI (DMS 114 small cell lung) was greater than 100 µM and the TGI (DLD-1 colon) was greater than 100 µM. It also gave a TGI (XF 498 CNS) greater than 100 µM and a TGI (KM20L2 colon) greater than 100 µM.
With `NC1CC(=O)c2cc(Br)sc21` (configuration not stated) the TGI (SK-MEL-2 melanoma) was greater than 100 µM.
With `O=C1/C(=C\c2cccc(Oc3ccccc3)c2)SC(c2ccccc2)N1c1ccc(Cl)cc1` (configuration not stated) the TGI (SK-MEL-2 melanoma) was greater than 100 µM.
`CC(C)CCC[C@@H](C)C1CCC2[C@@H]3CCC4CC(CCC=C(c5cc(Cl)c(OC(=O)c6ccccc6)c(C(=O)O)c5)c5cc(Cl)c(OC(=O)c6ccccc6)c(C(=O)O)c5)CC[C@]4(C)C3CC[C@@]21C` (some centres not stated) gave a TGI (SK-MEL-2 melanoma) greater than 100 µM.
`O=C(Nc1nc(C23CC4CC(CC(C4)C2)C3)cs1)c1cc2cc(Br)cc(Br)c2oc1=O` showed a TGI (SK-MEL-2 melanoma) greater than 100 µM.
